Data as given in the supplement of paper PMC10307832.

Experiments:
Experiment in all cases: relative viability (nuclei count vs DMSO), 5 days (fraction); higher = more cells survive
Lapatinib + Trametinib = compound: CS(=O)(=O)CCNCc1ccc(-c2ccc3ncnc(Nc4ccc(OCc5cccc(F)c5)c(Cl)c4)c3c2)o1 [Lapatinib] + CC(=O)Nc1cccc(-n2c(=O)n(C3CC3)c(=O)c3c(Nc4ccc(I)cc4F)n(C)c(=O)c(C)c32)c1 [Trametinib] (partner 0.02 µM)
In short: (§1)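 Medians of duplicate plates are given as relative viability. That measure is the nuclei count in treated wells divided by the count in vehicle wells. Counts were taken on 4× images of lung cancer cell lines in 1536-well plates, 5 days after pin-tool dosing the day after seeding with one drug alone or a fixed anchor-drug dose plus five library-drug doses (not always all listed) in √10 steps.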

Wnt-C59 + Navitoclax = compound: CC1=NC=CC(=C1)C2=CC=C(C=C2)CC(=O)NC3=CC=C(C=C3)C4=CN=CC=C4 [Wnt-C59] + CC1(C)CCC(c2ccc(Cl)cc2)=C(CN2CCN(c3ccc(C(=O)NS(=O)(=O)c4ccc(N[C@H](CCN5CCOCC5)CSc5ccccc5)c(S(=O)(=O)C(F)(F)F)c4)cc3)CC2)C1 [Navitoclax] (partner 0.5 µM)
In short: as §1

Wnt-C59 + Crizotinib = compound: CC1=NC=CC(=C1)C2=CC=C(C=C2)CC(=O)NC3=CC=C(C=C3)C4=CN=CC=C4 [Wnt-C59] + C[C@@H](Oc1cc(-c2cnn(C3CCNCC3)c2)cnc1N)c1c(Cl)ccc(F)c1Cl [Crizotinib] (partner 1 µM)
In short: as §1

Lapatinib + AZD7762 = compound: CS(=O)(=O)CCNCc1ccc(-c2ccc3ncnc(Nc4ccc(OCc5cccc(F)c5)c(Cl)c4)c3c2)o1 [Lapatinib] + NC(=O)Nc1cc(-c2cccc(F)c2)sc1C(=O)N[C@H]1CCCNC1 [AZD7762] (partner 0.2 µM)
In short: as §1

Row | Cell Line | relative viability (Lapatinib + Trametinib; first compound 0.02 µM) | relative viability (Lapatinib + Trametinib; first compound 0.06325 µM) | relative viability (Lapatinib + Trametinib; first compound 0.2 µM) | relative viability (Lapatinib + Trametinib; first compound 0.6325 µM) | relative viability (Lapatinib + Trametinib; first compound 2 µM) | relative viability (Wnt-C59 + Navitoclax; first compound 0.001 µM) | relative viability (Wnt-C59 + Navitoclax; first compound 0.01 µM) | relative viability (Wnt-C59 + Navitoclax; first compound 0.03162 µM) | relative viability (Wnt-C59 + Navitoclax; first compound 0.1 µM) | relative viability (Wnt-C59 + Crizotinib; first compound 0.001 µM) | relative viability (Wnt-C59 + Crizotinib; first compound 0.01 µM) | relative viability (Wnt-C59 + Crizotinib; first compound 0.03162 µM) | relative viability (Wnt-C59 + Crizotinib; first compound 0.1 µM) | relative viability (Lapatinib + AZD7762; first compound 0.02 µM) | relative viability (Lapatinib + AZD7762; first compound 0.06325 µM) | relative viability (Lapatinib + AZD7762; first compound 0.2 µM) | relative viability (Lapatinib + AZD7762; first compound 0.6325 µM) | relative viability (Lapatinib + AZD7762; first compound 2 µM)
1 | NCI-H1666 | 0.722 | 0.718 | 0.727 | 0.674 | 0.501 | 1.14 | 0.909 | 1.01 | 0.863 | 0.989 | 1.05 | 0.902 | 1.1 | 0.573 | 0.815 | 0.762 | 0.778 | 0.619
2 | NCI-H727 | 0.365 |  | 0.436 | 0.382 | 0.363 | 0.554 | 0.542 | 0.459 | 0.451 | 0.843 | 0.779 | 0.944 | 0.682 | 0.634 |  | 0.443 | 0.551 | 0.395
3 | LC-2-ad |  | 0.804 | 0.906 | 0.864 | 0.837 | 0.478 | 0.349 | 0.614 | 0.406 | 0.45 | 0.442 | 0.553 | 0.279 |  | 0.562 | 0.768 | 0.684 | 0.552
4 | HCC-827 | 0.479 | 0.487 | 0.536 | 0.517 | 0.408 | 1.08 | 1.04 | 1.04 | 1.02 | 1.01 | 0.979 | 0.942 | 0.975 | 0.172 | 0.299 | 0.129 | 0.19 | 0.103
5 | HCC-366 |  | 0.293 | 0.253 | 0.371 | 0.2 | 1.06 | 0.926 | 0.932 | 1.01 | 0.45 | 0.541 | 0.605 | 0.472 |  | 0.245 | 0.205 | 0.247 | 0.133
6 | EPLC-272H |  | 0.25 | 0.281 | 0.246 | 0.293 | 1.09 | 1 | 1.06 | 1.21 | 0.955 | 0.8 | 0.874 | 0.53 |  | 0.191 | 0.228 | 0.175 | 0.252
7 | NCI-H322M | 0.493 | 0.435 | 0.492 | 0.508 | 0.377 | 1.21 | 1.05 | 0.978 | 0.993 | 0.819 | 0.937 | 0.877 | 0.841 | 0.557 | 0.538 | 0.536 | 0.475 | 0.454
8 | NCI-H1944 | 0.41 | 0.35 | 0.388 | 0.322 | 0.288 | 1.06 | 0.96 | 1.07 | 0.964 | 1.04 | 0.971 | 1.18 | 1.07 | 0.504 | 0.453 | 0.51 | 0.47 | 0.379
9 | NCI-H1755 | 0.77 | 0.729 | 0.792 | 0.793 | 0.717 | 0.983 | 0.977 | 1.01 | 1.02 | 0.899 | 0.826 | 0.827 | 0.839 | 0.449 | 0.402 | 0.371 | 0.433 | 0.541
10 | ChaGo-K-1 | 0.868 | 0.918 | 0.9 | 0.868 | 0.894 | 0.657 |  | 1.07 | 1.18 | 1.08 |  | 1.21 | 1.09 | 0.703 | 0.805 | 0.926 | 0.942 | 0.882
11 | NCI-H2170 | 0.874 | 0.82 | 0.792 | 0.683 | 0.238 | 0.608 | 0.35 | 0.595 | 0.527 | 1.19 | 1.09 | 1.46 | 1.11 | 0.824 | 0.574 | 0.485 | 0.252 | 0.14
12 | LXF-289 | 0.713 | 0.689 | 0.68 | 0.652 | 0.631 | 0.999 | 0.912 | 0.929 | 0.948 | 0.822 | 0.768 | 0.817 | 0.78 | 1.02 | 1.09 | 1.05 | 1.13 | 0.957
13 | LCLC-97TM1 |  | 0.131 | 0.205 | 0.181 | 0.137 | 0.429 | 0.445 | 0.505 | 0.264 | 0.292 | 0.344 | 0.545 | 0.283 |  |  | 0.178 | 0.224 | 0.259
14 | NCI-H2347 | 0.298 | 0.236 | 0.278 | 0.302 | 0.281 | 0.897 | 0.846 | 1 | 0.748 | 0.673 | 0.598 | 0.612 | 0.653 | 0.495 | 0.705 | 0.637 | 0.81 | 0.612
15 | PC-3 [JPC-3] |  | 0.675 |  | 0.721 | 0.412 | 0.868 | 0.815 | 0.933 | 0.809 | 0.979 | 1.01 | 1.09 | 0.965 |  | 0.477 |  | 0.655 | 0.414
16 | H3255 |  | 0.49 | 0.623 | 0.516 | 0.25 | 0.573 | 0.502 | 0.688 | 0.558 | 0.86 | 0.959 | 0.942 | 0.751 | 0.818 | 0.892 | 0.799 | 0.664 | 0.501
